Data published in publication doi:10.1101/2023.11.24.568596v1 (biorxiv, 2023).

Tests used:
Details in all cases: binder
MST2 = biological target: T1, MST2 (Homo sapiens, UniProt Q13188)
T1 sequence (Q13188 1-491): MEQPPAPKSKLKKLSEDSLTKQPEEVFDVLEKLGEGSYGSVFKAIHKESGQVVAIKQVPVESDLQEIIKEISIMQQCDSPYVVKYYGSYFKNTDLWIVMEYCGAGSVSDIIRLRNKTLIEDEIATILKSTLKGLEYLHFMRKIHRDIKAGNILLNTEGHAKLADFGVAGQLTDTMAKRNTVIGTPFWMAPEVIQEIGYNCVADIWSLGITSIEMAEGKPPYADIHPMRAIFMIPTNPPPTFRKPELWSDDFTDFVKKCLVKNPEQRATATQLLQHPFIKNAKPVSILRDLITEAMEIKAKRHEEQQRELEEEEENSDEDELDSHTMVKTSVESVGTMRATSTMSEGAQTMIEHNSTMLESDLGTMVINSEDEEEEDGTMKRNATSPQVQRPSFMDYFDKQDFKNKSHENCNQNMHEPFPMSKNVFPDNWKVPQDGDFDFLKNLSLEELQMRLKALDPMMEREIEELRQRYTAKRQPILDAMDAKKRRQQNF

MST3 = MST3 (Homo sapiens, UniProt Q9Y6E0)
MST1 = biological target: T2, MST1 (Homo sapiens, UniProt Q13043)
T2 sequence (Q13043 1-487): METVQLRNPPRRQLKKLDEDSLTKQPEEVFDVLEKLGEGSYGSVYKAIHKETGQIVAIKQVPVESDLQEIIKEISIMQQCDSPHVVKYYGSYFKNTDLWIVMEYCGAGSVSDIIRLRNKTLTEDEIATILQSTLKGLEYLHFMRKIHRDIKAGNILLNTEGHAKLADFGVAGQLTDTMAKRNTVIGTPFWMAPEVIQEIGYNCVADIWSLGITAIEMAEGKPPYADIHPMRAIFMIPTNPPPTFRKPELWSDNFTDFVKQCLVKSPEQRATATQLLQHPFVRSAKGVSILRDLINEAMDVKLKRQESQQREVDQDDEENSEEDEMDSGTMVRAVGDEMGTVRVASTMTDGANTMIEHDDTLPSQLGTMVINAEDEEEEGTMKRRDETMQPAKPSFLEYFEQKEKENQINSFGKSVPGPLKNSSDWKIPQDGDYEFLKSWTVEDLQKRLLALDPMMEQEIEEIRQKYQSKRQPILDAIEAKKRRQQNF

MST4 = MST4 (Homo sapiens, UniProt Q9P289)
PAK1 = PAK1 (Homo sapiens, UniProt Q13153)
Chain of PAK1 (Q13153 whole entry): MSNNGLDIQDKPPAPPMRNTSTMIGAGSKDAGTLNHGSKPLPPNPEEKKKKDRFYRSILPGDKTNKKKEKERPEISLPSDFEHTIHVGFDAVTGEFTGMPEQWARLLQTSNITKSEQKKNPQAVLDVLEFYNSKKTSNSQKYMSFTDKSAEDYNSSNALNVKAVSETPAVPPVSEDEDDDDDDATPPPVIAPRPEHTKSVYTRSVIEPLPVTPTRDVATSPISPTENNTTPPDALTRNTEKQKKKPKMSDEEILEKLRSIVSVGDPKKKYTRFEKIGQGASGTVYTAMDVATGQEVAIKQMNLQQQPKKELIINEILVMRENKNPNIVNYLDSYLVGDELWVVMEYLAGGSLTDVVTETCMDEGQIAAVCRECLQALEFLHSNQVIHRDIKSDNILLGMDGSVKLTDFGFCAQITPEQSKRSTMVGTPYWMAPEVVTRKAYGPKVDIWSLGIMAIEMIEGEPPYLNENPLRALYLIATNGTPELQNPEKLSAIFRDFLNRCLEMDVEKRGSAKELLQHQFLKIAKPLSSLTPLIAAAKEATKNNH

Chain of MST4 (Q9P289 whole entry): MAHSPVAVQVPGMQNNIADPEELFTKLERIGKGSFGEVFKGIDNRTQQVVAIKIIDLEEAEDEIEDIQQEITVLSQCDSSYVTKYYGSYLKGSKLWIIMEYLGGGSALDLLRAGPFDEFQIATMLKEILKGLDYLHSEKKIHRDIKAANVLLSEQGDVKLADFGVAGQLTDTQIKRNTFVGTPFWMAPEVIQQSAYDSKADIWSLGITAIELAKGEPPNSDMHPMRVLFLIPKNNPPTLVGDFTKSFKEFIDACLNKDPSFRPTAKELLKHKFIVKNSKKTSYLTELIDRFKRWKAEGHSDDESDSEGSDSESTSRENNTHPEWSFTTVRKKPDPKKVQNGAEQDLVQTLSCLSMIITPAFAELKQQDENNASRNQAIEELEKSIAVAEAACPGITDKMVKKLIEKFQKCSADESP
Chain of MST3 (Q9Y6E0 whole entry): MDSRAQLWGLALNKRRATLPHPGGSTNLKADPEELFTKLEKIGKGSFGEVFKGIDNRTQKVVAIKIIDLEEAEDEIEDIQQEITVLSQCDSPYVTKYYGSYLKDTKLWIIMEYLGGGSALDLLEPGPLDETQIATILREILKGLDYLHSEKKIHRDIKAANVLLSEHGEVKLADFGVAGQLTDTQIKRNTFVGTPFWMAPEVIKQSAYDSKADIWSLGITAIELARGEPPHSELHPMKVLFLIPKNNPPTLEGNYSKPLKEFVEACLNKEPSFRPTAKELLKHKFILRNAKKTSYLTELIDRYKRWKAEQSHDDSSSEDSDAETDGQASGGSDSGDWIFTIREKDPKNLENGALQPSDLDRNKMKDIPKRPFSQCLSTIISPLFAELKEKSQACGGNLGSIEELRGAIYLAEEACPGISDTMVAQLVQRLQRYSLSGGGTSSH

SMILES | dTm MST2 (MST2) [°C] | dTm MST3 (MST3) [°C] | dTm MST1 (MST1) [°C] | dTm MST4 (MST4) [°C] | dTm PAK1 (PAK1) [°C]
CNc1ncc2cc(-c3ccc(-c4cccc(C)n4)cc3Cl)c(O)nc2n1 [compound 9, 6-(2-Chloro-4-(6-methylpyridin-2-yl)phenyl)-2-(methylamino)pyrido[2,3-d]pyrimidin-7-ol] | 0.3 | 0.6 | – | – | –
CNc1ncc2cc(-c3ccc(-c4cccc(C)n4)cc3Cl)c(=O)n(C)c2n1 [compound 10, 6-(2-Chloro-4-(6-methylpyridin-2-yl)phenyl)-8-methyl-2-(methylamino)pyrido[2,3-d]pyrimidin-7(8H)-one] | 1.3 | 3.7 | 1.6 | 1.6 | 3.2
CNc1ncc2cc(-c3ccc(-c4cccc(C)n4)cc3Cl)c(=O)n(CCOC)c2n1 [compound 11, 6-(2-Chloro-4-(6-methylpyridin-2-yl)phenyl)-8-(2-methoxyethyl)-2-(methylamino)-pyrido[2,3-d]pyrimidin-7(8H)-one] | 5.0 | 6.7 | 3.9 | 4.4 | 4.1
CNc1ncc2cc(-c3ccc(-c4cccc(C)n4)cc3Cl)c(=O)n(CCCOC)c2n1 [compound 12, 6-(2-Chloro-4-(6-methylpyridin-2-yl)phenyl)-8-(3-methoxypropyl)-2-(methylamino)-pyrido[2,3-d]pyrimidin-7(8H)-one] | 6.2 | 5.1 | 3.6 | 4.1 | 5.1
CNc1ncc2cc(-c3ccc(-c4cccc(C)n4)cc3Cl)c(=O)n(CCCCOC)c2n1 [compound 13, 6-(2-Chloro-4-(6-methylpyridin-2-yl)phenyl)-8-(4-methoxybutyl)-2-(methylamino)-pyrido[2,3-d]pyrimidin-7(8H)-one] | 8.6 | 6.2 | 3.3 | 3.6 | 4.8
CNc1ncc2cc(-c3ccc(-c4cccc(C)n4)cc3Cl)c(=O)n(CCO)c2n1 [compound 14, 6-(2-Chloro-4-(6-methylpyridin-2-yl)phenyl)-8-(2-hydroxyethyl)-2-(methylamino)-pyrido[2,3-d]pyrimidin-7(8H)-one] | 9.0 | 7.8 | 4.0 | 5.8 | 5.0
CNc1ncc2cc(-c3ccc(-c4cccc(C)n4)cc3Cl)c(=O)n(CCCO)c2n1 [compound 15, 6-(2-Chloro-4-(6-methylpyridin-2-yl)phenyl)-8-(3-hydroxypropyl)-2-(methylamino)-pyrido[2,3-d]pyrimidin-7(8H)-one] | 6.3 | 6.2 | 3.4 | 5.0 | 4.5
CNc1ncc2cc(-c3ccc(-c4cccc(C)n4)cc3Cl)c(=O)n(CCCCO)c2n1 [compound 16, 6-(2-Chloro-4-(6-methylpyridin-2-yl)phenyl)-8-(4-hydroxybutyl)-2-(methylamino)-pyrido[2,3-d]pyrimidin-7(8H)-one] | 7.1 | 5.7 | 3.8 | 5.0 | 5.0
CNc1ncc2cc(-c3ccc(-c4cccc(C)n4)cc3Cl)c(=O)n(CCCCCO)c2n1 [compound 17, 6-(2-Chloro-4-(6-methylpyridin-2-yl)phenyl)-8-(5-hydroxypentyl)-2-(methylamino)-pyrido[2,3-d]pyrimidin-7(8H)-one] | 6.1 | 6.6 | 2.4 | 5.5 | 6.0
CNc1ncc2cc(-c3ccc(-c4cccc(C)n4)cc3Cl)c(=O)n(CCN)c2n1 [compound 18, 8-(2-Aminoethyl)-6-(2-chloro-4-(6-methylpyridin-2-yl)phenyl)-2-(methylamino)pyrido[2,3-d]pyrimidin-7(8H)-one] | 1.6 | 5.5 | 1.6 | 3.3 | 1.3
CNc1ncc2cc(-c3ccc(-c4cccc(C)n4)cc3Cl)c(=O)n(CCCN)c2n1 [compound 19, 8-(3-Aminopropyl)-6-(2-chloro-4-(6-methylpyridin-2-yl)phenyl)-2-(methylamino)-pyrido[2,3-d]pyrimidin-7(8H)-one] | 4.4 | 7.9 | 2.8 | 7.2 | 4.0
CNc1ncc2cc(-c3ccc(-c4cccc(C)n4)cc3Cl)c(=O)n(CCCCCN)c2n1 [compound 21, 8-(5-Aminopentyl)-6-(2-chloro-4-(6-methylpyridin-2-yl)phenyl)-2-(methylamino)-pyrido[2,3-d]pyrimidin-7(8H)-one] | 10.7 | 9.2 | 5.2 | 7.1 | 6.3
